Each structure is given as a SMILES string.

The assay has as its system HEK293T cells carrying the ATF4 luciferase reporter. Nature of the assay: ATF4-Luc assay, in vitro model of Vanishing Cell White Matter Disease (VWMD). Format: cell-based. To be noted: Homo sapiens, HEK-293T, 1 μg/mL tunicamycin, 7 hours, One Glo luminescence. The method in brief: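 Compound at 200 nM and tunicamycin at 1 μg/mL were given together for 7 h to HEK293T cells stably transduced with an ATF4 5′-UTR-driven firefly luciferase reporter. Read-out by luminescence, reported as EC50.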
On to `O=C(COc1ccc(Cl)c(Cl)c1)NC12CC(NC(=O)c3cnccn3)(C1)C2` [Compound 164, N-{3-[2-(3,4-dichlorophenoxy)acetamido]bicyclo[1.1.1]pentan-1-yl}pyrazine-2-carboxamide], for which the EC50 (usually the concentration giving half of the maximal effect) is 0.05 to 0.25 µM. For `O=C(COc1ccc(Cl)c(F)c1)NC12CC(NC(=O)c3cnc(C(F)(F)F)s3)(C1)C2` [Compound 563, N-{3-[2-(4-chloro-3-fluorophenoxy)acetamido]bicyclo[1.1.1]pentan-1-yl}-2-(trifluoromethyl)-1,3-thiazole-5-carboxamide], the EC50 is less than 0.05 µM.

For `O=C(COc1ccc(Cl)c(F)c1)NC12CC(Nc3c(Cl)cnn(CC(F)(F)F)c3=O)(C1)C2` [Compound 417, 2-(4-chloro-3-fluorophenoxy)-N-(3-{[5-chloro-3-oxo-2-(2,2,2-trifluoroethyl)-2,3-dihydropyridazin-4-yl]amino}bicyclo[1.1.1]pentan-1-yl)acetamide], the concentration giving a half-maximal response (EC50) is 0.25 to 1 µM.

Turning to `O=C(COc1ccc(Cl)c(F)c1)NC12CC(NC(=O)c3cnsn3)(C1)C2` [Compound 895, N-{3-[2-(4-chloro-3-fluorophenoxy)acetamido]bicyclo[1.1.1]pentan-1-yl}-1,2,5-thiadiazole-3-carboxamide], the EC50 was 0.25 to 1 µM. For `Cc1nc(C)c(C(=O)NC23CC(NC(=O)COc4ccc(Cl)c(F)c4)(C2)C3)o1` [Compound 847, N-{3-[2-(4-chloro-3-fluorophenoxy)acetamido]bicyclo[1.1.1]pentan-1-yl}-2,4-dimethyl-1,3-oxazole-5-carboxamide], the EC50 was 0.25 to 1 µM.

As to `Cc1nc2ccc(C(=O)NC34CC(NC(=O)COc5ccc(Cl)c(F)c5)(C3)C4)cc2s1` [Compound 774, N-{3-[2-(4-chloro-3-fluorophenoxy)acetamido]bicyclo[1.1.1]pentan-1-yl}-2-methyl-1,3-benzothiazole-6-carboxamide], the EC50 is greater than 2 µM.

With `COc1ncnc(OC)c1C(=O)NC12CC(NC(=O)COc3ccc(Cl)c(F)c3)(C1)C2` [Compound 118, N-{3-[2-(4-chloro-3-fluorophenoxy)acetamido]bicyclo[1.1.1]pentan-1-yl}-4,6-dimethoxypyrimidine-5-carboxamide], the EC50 was greater than 2 µM. Consider `O=C(COc1ccc(Cl)c(F)c1)NC12CC(NC(=O)c3ccc(-c4ccc(Cl)c(F)c4)o3)(C1)C2` [Compound 106, N-{3-[2-(4-chloro-3-fluorophenoxy)acetamido]bicyclo[1.1.1]pentan-1-yl}-5-(4-chloro-3-fluorophenyl)furan-2-carboxamide], for which the EC50 was less than 0.05 µM. `CCc1cnc(C(=O)NC23CC(NC(=O)COc4ccc(Cl)c(Cl)c4)(C2)C3)cn1` [Compound 711, N-{3-[2-(3,4-dichlorophenoxy)acetamido]bicyclo[1.1.1]pentan-1-yl}-5-ethylpyrazine-2-carboxamide]: the concentration giving a half-maximal response (EC50) was less than 0.05 µM. In the case of `CCc1cc(C(=O)NC23CC(NC(=O)COc4ccc5c(c4)OC(F)(F)O5)(C2)C3)n(C)n1` [Compound 399, N-(3-{2-[(2,2-difluoro-2H-1,3-benzodioxol-5-yl)oxy]acetamido}bicyclo[1.1.1]pentan-1-yl)-3-ethyl-1-methyl-1H-pyrazole-5-carboxamide], the EC50 was in the range of 0.25 to 1 µM.

Take `O=C(COc1ccc(Cl)c(F)c1)NC12CC(NC(=O)c3ccc4ncsc4c3)(C1)C2` [Compound 773, N-{3-[2-(4-chloro-3-fluorophenoxy)acetamido]bicyclo[1.1.1]pentan-1-yl}-1,3-benzothiazole-6-carboxamide]: the concentration giving a half-maximal response (EC50) is greater than 2 µM. The same measure for `COCc1ccc(C(=O)NC23CC(NC(=O)COc4ccc(Cl)c(F)c4)(C2)C3)cc1` [Compound 552, N-{3-[2-(4-chloro-3-fluorophenoxy)acetamido]bicyclo[1.1.1]pentan-1-yl}-4-(methoxymethyl)benzamide]: 0.05 to 0.25 µM. As for `O=C(COc1ccc(Cl)c(F)c1)NC12CC(NC(=O)c3coc(-c4ccc(Cl)c(F)c4)n3)(C1)C2` [Compound 108, N-{3-[2-(4-chloro-3-fluorophenoxy)acetamido]bicyclo[1.1.1]pentan-1-yl}-2-(4-chloro-3-fluorophenyl)-1,3-oxazole-4-carboxamide], the EC50 was less than 0.05 µM. Take `O=C(COc1ccc(Cl)c(F)c1)NC12CCC(NC(=O)c3ccccn3)(CC1)C[C@@H]2O` [Compound 727, N-{(3S)-4-[2-(4-chloro-3-fluorophenoxy)acetamido]-3-hydroxybicyclo[2.2.2]octan-1-yl}pyridine-2-carboxamide]: the EC50 was less than 0.05 µM.

As for `O=C(COc1ccc2c(c1)OC(F)(F)O2)NC12CCC(NC(=O)c3cccc(F)c3)(CC1)C[C@@H]2O` [Compound 635, N-[(3S)-4-{2-[(2,2-difluoro-2H-1,3-benzodioxol-5-yl)oxy]acetamido}-3-hydroxybicyclo[2.2.2]octan-1-yl]-3-fluorobenzamide], the EC50 fell in the range of 0.25 to 1 µM. As for `O=C(COc1ccc(Cl)c(F)c1)NC12CC(NC(=O)c3ncc(Cl)cc3F)(C1)C2` [Compound 770, 5-chloro-N-{3-[2-(4-chloro-3-fluorophenoxy)acetamido]bicyclo[1.1.1]pentan-1-yl}-3-fluoropyridine-2-carboxamide], the EC50 fell in the range of 1 to 2 µM. Regarding `Cc1cc(C(=O)NC23CC(NC(=O)COc4ccc(Cl)c(F)c4)(C2)C3)n(C)n1` [Compound 241, N-{3-[2-(4-chloro-3-fluorophenoxy)acetamido]bicyclo[1.1.1]pentan-1-yl}-1,3-dimethyl-1H-pyrazole-5-carboxamide], the EC50 is less than 0.05 µM. `Cn1cccc1C(=O)NC12CC(NC(=O)COc3ccc(Cl)c(F)c3)(C1)C2` [Compound 821, N-{3-[2-(4-chloro-3-fluorophenoxy)acetamido]bicyclo[1.1.1]pentan-1-yl}-1-methyl-1H-pyrrole-2-carboxamide]: the EC50 is greater than 2 µM. The value for `O=C(COc1ccc(Cl)c(F)c1)NC12CC(NC(=O)c3cnc4ccnn4c3)(C1)C2` [Compound 690, N-{3-[2-(4-chloro-3-fluorophenoxy)acetamido]bicyclo[1.1.1]pentan-1-yl}pyrazolo[1,5-a]pyrimidine-6-carboxamide] was 0.25 to 1 µM; that for `Cc1cnc(C(=O)NC23CCC(NC(=O)COc4ccc(Cl)c(Cl)c4)(C2)C3)cn1` [Compound 142, N-{4-[2-(3,4-dichlorophenoxy)acetamido]bicyclo[2.1.1]hexan-1-yl}-5-methylpyrazine-2-carboxamide] was 0.25 to 1 µM; that for `O=C(COc1ccc(Cl)c(F)c1)NC12CC(Nc3nccc(-c4cnn(C(F)F)c4)n3)(C1)C2` [Compound 382, 2-(4-chloro-3-fluorophenoxy)-N-[3-({4-[1-(difluoromethyl)-1H-pyrazol-4-yl]pyrimidin-2-yl}amino)bicyclo[1.1.1]pentan-1-yl]acetamide] was greater than 2 µM. In the case of `COc1ccc(C(=O)NC23CC(NC(=O)COc4ccc(Cl)c(F)c4)(C2)C3)cc1F` [Compound 530, N-{3-[2-(4-chloro-3-fluorophenoxy)acetamido]bicyclo[1.1.1]pentan-1-yl}-3-fluoro-4-methoxybenzamide], the EC50 fell in the range of 0.25 to 1 µM. Turning to `O=C(COc1ccc(Cl)c(F)c1)NC12CC(Nc3nc4ccccc4o3)(C1)C2` [Compound 360, N-{3-[(1,3-benzoxazol-2-yl)amino]bicyclo[1.1.1]pentan-1-yl}-2-(4-chloro-3-fluorophenoxy)acetamide], the EC50 was greater than 2 µM.

The record behind these values is patent publication US10913727B2, “Modulators of the integrated stress pathway” (Calico Life Sciences LLC, priority 2016, dated 2021).
